Reference: PMC4013825 (Journal of biomolecular screening, 2014)

Tests used:
[1] = target: T1, SERCA2a (sarco/endoplasmic reticulum calcium ATPase) (Canis lupus, UniProt O46674); experiment: live-cell intramolecular FRET lifetime dose-response; format: cell-based
[2] = target: T1, SERCA2a (sarco/endoplasmic reticulum calcium ATPase); experiment: as above; format: cell-based; remark: listed apart in the source

T1 sequence (O46674 whole entry): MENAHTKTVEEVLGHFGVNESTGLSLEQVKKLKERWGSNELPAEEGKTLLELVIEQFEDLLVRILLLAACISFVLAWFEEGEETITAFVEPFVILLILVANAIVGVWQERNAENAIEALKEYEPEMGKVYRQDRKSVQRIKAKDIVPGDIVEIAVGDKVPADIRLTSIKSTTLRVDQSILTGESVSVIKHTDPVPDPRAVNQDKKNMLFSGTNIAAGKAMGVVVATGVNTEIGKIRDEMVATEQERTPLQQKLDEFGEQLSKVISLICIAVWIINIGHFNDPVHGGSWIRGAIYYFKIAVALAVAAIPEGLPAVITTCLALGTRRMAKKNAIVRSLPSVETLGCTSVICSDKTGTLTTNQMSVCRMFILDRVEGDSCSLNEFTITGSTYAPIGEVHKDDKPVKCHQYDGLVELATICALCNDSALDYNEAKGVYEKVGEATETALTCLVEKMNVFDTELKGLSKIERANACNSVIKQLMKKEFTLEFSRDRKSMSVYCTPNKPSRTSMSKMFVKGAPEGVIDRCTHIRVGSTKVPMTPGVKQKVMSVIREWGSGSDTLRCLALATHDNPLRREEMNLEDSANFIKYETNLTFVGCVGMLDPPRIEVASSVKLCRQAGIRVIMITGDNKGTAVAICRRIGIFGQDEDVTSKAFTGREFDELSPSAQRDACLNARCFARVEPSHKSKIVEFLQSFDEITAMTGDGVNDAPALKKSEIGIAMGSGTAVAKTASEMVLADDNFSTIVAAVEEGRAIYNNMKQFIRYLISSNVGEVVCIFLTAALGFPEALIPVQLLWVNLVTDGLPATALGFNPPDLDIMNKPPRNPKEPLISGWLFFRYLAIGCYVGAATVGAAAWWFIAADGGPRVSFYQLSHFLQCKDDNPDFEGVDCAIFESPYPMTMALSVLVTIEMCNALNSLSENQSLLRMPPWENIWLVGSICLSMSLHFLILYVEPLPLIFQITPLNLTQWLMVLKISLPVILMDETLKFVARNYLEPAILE

`CC(=O)C1=C(O)[C@@H]2[C@H]3c4c[nH]c5cccc(c45)C[C@H]3C(C)(C)N2C1=O` [CPA, cyclopiazonic acid] gave a Kd [1] of about 40 nM.
For `C/C=C(/C)C(=O)O[C@H]1C(C)=C2[C@H]([C@@H]1OC(=O)CCCCCCC)[C@@](C)(OC(C)=O)C[C@H](OC(=O)CCC)[C@@]1(O)[C@H]2OC(=O)[C@@]1(C)O` [TG, thapsigargin], the “live-cell intramolecular FRET lifetime dose-response; ATPase inhibition in pig c” value [2] was 7.5 nM.
